Results published in publication PMC5766630, “Non-estrogenic Xanthohumol Derivatives Mitigate Insulin Resistance and Cognitive Impairment in High-Fat Diet-induced Obese Mice” (Scientific Reports, 2018).

Experiments:
[1] = tested on: MCF-7 cells; test: MCF-7 cell proliferation, sulforhodamine B (SRB) assay; type: cell-based, human; settings: 48 h exposure, vs vehicle control; for MCF-7 cell viability/proliferation at low concentrations: 0.001–1 µM
Protocol: The SRB assay has been used to study the effects of phytochemicals such as XN, DXN and 8-PN on cell proliferation of various cancer cell lines, including MCF-7 cells[91],[92]. SRB is a dye that binds to cellular proteins of adherent cells and the absorbance readings are a measure of the number of viable cells (cell mass) attached to the culture plate after incubation with the test compounds (samples) in comparison with vehicle control cells. The cell mass is then extrapolated as a measurement of cell viability and cell proliferation. Increased proliferation of MCF-7 cells is one of the measures of estrogenicity of phytochemicals. MCF-7 cells were plated at 10,000 cells/well in 96-well plates in DMEM medium containing 10% charcoal-stripped FBS and antibiotics. […] After incubation with the test compounds for 48 h, the cell culture medium was removed from each well of the 96-well plate and the cells were fixed for 1 h with 10% trichloroacetic acid. The cells on the plate were washed five with distilled water, air-dried, and then stained with SRB dye (0.4% w/v in 1% acetic acid). Excess dye was removed by washing the plate five times with 1% acetic acid. The plates were air-dried and the adsorbed dye was solubilized in 10 mM Tris buffer for 5 min on a shaker before reading the optical density (OD) at 565 nm. The percentage cell viability/proliferation was calculated as follows: (ODSample−ODZeroblank)/(ODControl−ODZeroblank)×100. Mean values and the coefficient of variation (CV) from six replicate wells were calculated and a one-way ANOVA was used to compare statistical differences between treated and control cells, with p < 0.05 as the level of significance.

[2] = target: T1, full-length purified human estrogen receptor ERα (Homo sapiens, UniProt P03372); test: ERα competitive radiometric binding assay; settings: RBA = IC50[estradiol]/IC50[compound] × 100, estradiol = 100; 2 nM [3H]-estradiol tracer, 18–24 h at 0 °C
T1 construct: full-length purified human estrogen receptors ERα and ERβ
T1 sequence (P03372 1-595): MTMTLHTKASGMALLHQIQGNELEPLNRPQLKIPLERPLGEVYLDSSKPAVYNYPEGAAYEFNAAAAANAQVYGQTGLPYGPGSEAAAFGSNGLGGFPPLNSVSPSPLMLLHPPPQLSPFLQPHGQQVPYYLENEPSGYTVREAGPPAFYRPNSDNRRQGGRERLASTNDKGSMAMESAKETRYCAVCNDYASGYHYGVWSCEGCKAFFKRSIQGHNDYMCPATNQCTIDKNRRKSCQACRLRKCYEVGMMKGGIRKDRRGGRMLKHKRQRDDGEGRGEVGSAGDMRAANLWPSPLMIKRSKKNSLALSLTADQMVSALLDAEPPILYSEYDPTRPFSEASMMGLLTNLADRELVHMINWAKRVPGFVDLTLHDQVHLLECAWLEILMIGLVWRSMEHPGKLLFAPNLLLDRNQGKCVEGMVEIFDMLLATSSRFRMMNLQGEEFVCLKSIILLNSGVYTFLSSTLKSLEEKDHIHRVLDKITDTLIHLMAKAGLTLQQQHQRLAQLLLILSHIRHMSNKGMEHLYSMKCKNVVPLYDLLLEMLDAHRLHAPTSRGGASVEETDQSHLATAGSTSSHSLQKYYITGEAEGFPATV
Protocol: The receptors and ligands were incubated for 18–24 h at 0 °C and then the receptor–ligand complexes separated using hydroxyapatite (BioRad, Hercules, CA, USA).

[3] = target: T2, full-length purified human estrogen receptor ERβ (Homo sapiens, UniProt Q92731); test: ERβ competitive radiometric binding assay; settings: RBA = IC50[estradiol]/IC50[compound] × 100, estradiol = 100; 2 nM [3H]-estradiol tracer, 18–24 h at 0 °C
T2 construct: full-length purified human estrogen receptors ERα and ERβ
T2 sequence (Q92731 whole entry): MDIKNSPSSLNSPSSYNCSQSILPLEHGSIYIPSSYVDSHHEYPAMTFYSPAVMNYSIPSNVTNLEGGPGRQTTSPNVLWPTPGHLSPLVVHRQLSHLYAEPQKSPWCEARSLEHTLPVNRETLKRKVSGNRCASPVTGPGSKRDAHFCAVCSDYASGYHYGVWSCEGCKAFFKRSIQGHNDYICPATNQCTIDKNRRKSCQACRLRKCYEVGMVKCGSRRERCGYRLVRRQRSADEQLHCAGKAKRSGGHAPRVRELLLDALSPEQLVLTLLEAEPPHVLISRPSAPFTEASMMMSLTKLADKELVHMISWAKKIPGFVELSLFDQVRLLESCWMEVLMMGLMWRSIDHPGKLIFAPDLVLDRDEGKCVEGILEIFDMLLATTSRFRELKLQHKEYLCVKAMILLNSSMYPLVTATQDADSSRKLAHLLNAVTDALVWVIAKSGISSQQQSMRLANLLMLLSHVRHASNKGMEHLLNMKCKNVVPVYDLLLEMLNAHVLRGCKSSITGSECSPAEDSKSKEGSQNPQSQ
Protocol: . The receptors and ligands were incubated for 18–24 h at 0 °C and then the receptor–ligand complexes separated using hydroxyapatite (BioRad, Hercules, CA, USA). […]

[4] = tested on: C2C12 skeletal muscle myoblasts; test: MTT cell viability assay, C2C12; type: cell-based, mouse; settings: 1 h exposure, up to 50 μM
Protocol: For cell viability experiments using the MTT assay, mouse C2C12 skeletal muscle myoblasts (ATCC; Manassas, VA, USA) and the human hepatocyte cell line, HepG2 (ATCC; Manassas, VA, USA), were plated in 96-well plates at a density of 4,000 to 10,000 cells per well in 200 μL of DMEM medium supplemented with 10% FBS, 1% glutamine, 1 mM of sodium pyruvate, 100 units/mL penicillin, and 100 μg/mL streptomycin. After incubating 48 h, the medium was removed and the cells were treated with fresh solutions of various concentrations of XN, DXN or TXN in phenol red-free DMEM plus supplements. The final concentrations of XN, DXN, TXN were 1, 2, 5, 8, 10, 25, or 50 μM, in quadruplicate wells. The plates were then incubated for 1 h (for C2C12) or 24 h for HepG2. After removing the medium, the cells were incubated for 2 h with a 0.5 mg/mL solution of MTT in phenol red-free culture medium. After removing the medium and adding a solution of acidified isopropanol to each well, the absorbance of each well was measured at 570 nm by using a spectrometer (SpectraMax 190, Molecular Devices, Sunnyvale, CA, USA). Cell viability of compound-treated cells was calculated as % absorbance of vehicle-treated control cells (Supplementary Fig. S1a and S1b).

[5] = tested on: progesterone receptor (PGR) expression in MCF-7 cells; test: Progesterone receptor (PGR) gene expression in MCF-7 cells, real-time PCR; type: cell-based, human; settings: 20 h; estradiol 1 and 10 nM; 8-PN, XN, DXN, TXN 0.2, 1 and 5 μM; vs 0.1% ethanol
Protocol: MCF-7 cells (American Type Culture Collection, Manassas, VA, USA) were cultured in DMEM (Corning Life Sciences, Tewksbury, MA, USA) supplemented with 10% fetal bovine serum (Corning Life Sciences) and 100 μg/ml penicillin/streptomycin (Invitrogen, Carlsbad, CA, USA). For estrogen-free experiments, cells were seeded in phenol-free DMEM (Gibco/Life Technologies, Grand Island, NY, USA) plus 10% charcoal-dextran-treated FBS (Corning Life Sciences) at 5 × 10^5 cells/well of a 6-well plate. […] Total RNA was isolated using TRIzol (Invitrogen) and converted into cDNA using iScript (Bio-Rad, Hercules, CA, USA). Real-time PCR was performed in triplicate on a CFX-96 (Bio-Rad) using primer-probe assays (IDT Technologies, Coralville, IA, USA) and SsoAdvanced Universal Probes Supermix (Bio-Rad) to quantify progesterone receptor (PGR) and GAPDH levels. The ratio of PGR to GAPDH was calculated as 2^−ΔCt PGR/2^−ΔCt GAPDH. Data were analyzed using a one-way ANOVA (p < 0.05 was considered statistically significant) and a post-hoc Tukey’s multiple comparison test. Induction of the progesterone receptor in MCF-7 cells is one of the indices of estrogenicity of flavonoids such as 8-PN[94].

RBA ERα (relative binding affinity) [2] | RBA ERβ (relative binding affinity) [3] | Structure (SMILES) | MCF-7 cell viability/proliferation at 10 µM [1] | MCF-7 cell viability/proliferation at low concentrations [1] | C2C12 cell viability (MTT) [4] | induction of PGR expression [5]
0.0033 ± 0.001 | 0.009 ± 0.002 | COc1cc(O)c(CCC(C)C)c(O)c1C(=O)CCc1ccc(O)cc1 [TXN, tetrahydroxanthohumol] | significantly decreased | did not produce a significant increase | did not significantly affect cell viability | do not induce
0.0029 ± 0.0007 | 0.009 ± 0.002 | COc1cc(O)c(CC=C(C)C)c(O)c1C(=O)CCc1ccc(O)cc1 [DXN, α,β-Dihydroxanthohumol] | significantly decreased | did not produce a significant increase | did not significantly affect cell viability | do not induce

Structure (SMILES) | RBA ERα (relative binding affinity) [2] | RBA ERβ (relative binding affinity) [3] | MCF-7 cell viability/proliferation at 10 µM [1] | MCF-7 cell viability/proliferation at low concentrations [1] | C2C12 cell viability (MTT) [4] | induction of PGR expression [5]
COc1cc(O)c(CC=C(C)C)c(O)c1C(=O)/C=C/c1ccc(O)cc1 [XN, 3′-[3,3-dimethylallyl]-2′,4′,4-trihydroxy-6′-methoxychalcone] | 0.0021 ± 0.0003 | 0.003 ± 0.001 | significantly decreased | did not produce a significant increase | did not significantly affect cell viability | do not induce
